Measurements published in patent US20180172712A1, “METHODS AND MATERIALS FOR ASSESSING HYDROGEN PEROXIDE ACCUMULATION IN CELLS” (Mayo Foundation for Medical Education and Research, priority 2015, published 2018).
Like-named read-outs stand apart in the source and are kept apart here.

Key:
[1] = tested on: OCIMY5-Vector and OCIMY-CRBN cells; test: MTT assay in OCIMY5-Vector and OCIMY-CRBN cells; details: 72 hours
Procedure: Cell viability was assessed by 3-(4,5-dimethylthiazol-2-yl)-2,5-diphenyltetrazolium bromide (MTT) colorimetric assay. […] The data were normalized to the DMSO-treated group. Each experimental condition was performed in triplicate and repeated at least once. Thalidomide was obtained from Sigma, and pomalidomide was obtained from Selleckchem.
(§1) Human CRBN cDNA was obtained from Thermo Scientific and subcloned into a lentiviral expression vector, pCDH-CMV-MCS-EF1-copGFP (System Bioscience). Lentivirus harboring control vector and CRBN cDNA constructs were prepared and used to infect the multiple myeloma (MM) cell line OCIMY5. Infection efficiency was measured by FACScan analysis of GFP expression 3 days after infection. The cells were sorted for GFP expression 14 days after infection.

myeloma cells [2] = test: MTT assay of dehydroascorbic acid in myeloma cells; type: cell-based, human; details: high concentrations
Source text: (§2) The data were normalized to the DMSO-treated group.

RPMI-8226 cells = test: MTT assay in RPMI-8226 cells; type: cell-based, human; details: RPMI-8226, 3 days
Source text: as §2

IKZF1 and IKZF3 [3] = details: OPM2-NT vs OPM2-shCRBN; H2O2 25 or 50 μM, 3 hours
Source text: (§3) Proteins were transferred to polyvinylidene fluoride membranes (Bio-Rad).

IKZF1 and IKZF3 [4] = test: Western blot of IKZF1 and IKZF3 in OCIMY-5 cells overexpressing CRBN; type: cell-based, human; details: lenalidomide 10 μM or H2O2 25 or 50 μM, within 3 hours
Procedure: as §3, §1

IKZF1 and IKZF3 [5] = test: Western blot of IKZF1 and IKZF3 in MM.1S cells; type: cell-based, human; details: for IKZF1 and IKZF3 degradation: MM.1S cells, 3 hours (lenalidomide 10 μM, H2O2 100 μM, PX12 20 μM)
Source text: as §3

IgL-λ dimers = test: IgL dimerization immunoblot under nonreducing conditions in MM.1S cells; type: cell-based, human; details: 3 hours, lenalidomide 10 μM or H2O2 25 μM
Source text: as §3

MM.1S cells = test: MTT assay in MM.1S cells; type: cell-based, human; details: 3 days
Source text: as §2

[6] = tested on: Myeloma cell line harboring CRBN or without CRBN; test: Cell survival of myeloma cell line harboring CRBN or without CRBN treated with cofactors; type: cell-based, human; details: cofactor alone
Source text: as §2

IKZF1 and IKZF3 [7] = test: Western blot of IKZF1 and IKZF3 in OPM2 cells; type: cell-based, human; details: PX12 20 μM, within 3 hours
Source text: as §3

myeloma cells [8] = test: MTT assay of auranofin in myeloma cells; type: cell-based, human
Source text: as §2

myeloma cells [9] = test: Intracellular H2O2 accumulation in myeloma cells; type: cell-based, human
thioredoxin reductase = test: Thioredoxin reductase inhibition
PARP = PARP cleavage immunoblot in OPM2-NT and OPM2-shCRBN cells; type: cell-based, human; details: OPM2 CRBN-positive cells; bortezomib 2.5 nM 2 days
Source text: as §3

[10] = tested on: myeloma cell line harboring CRBN and myeloma cell line without CRBN; test: Viability of myeloma cell lines with auranofin and bortezomib; type: cell-based, human; details: bortezomib in combination with auranofin
OPM2 cells = test: Apoptosis assay (Annexin V/propidium iodide FACS) in OPM2 cells; type: cell-based, human; details: lenalidomide 10 μM pretreatment two days, bortezomib 2.5 nM 2 days
Procedure: Treated cells were harvested and stained for flow cytometry with Annexin V-fluorescein isothiocyanate and propidium iodide (BD Pharmingen). Stained cells were analyzed with a BD LSRII flow cytometer, and the data were analyzed with BD fluorescence-activated cell sorting (FACs) DIVA software.

RPMI-8226 myeloma cells = test: Anti-oxidative capacity by FAD and NAD(P)H autofluorescence flow cytometry; type: cell-based, human; details: pre-treatment of myeloma cells, then external H2O2
Procedure: HMCLs cells (1 million cells/1 mL PBS) treated or not treated with 100 μM concentration of H2O2 were immediately analyzed for autofluoresnece of FAD (FITC-A channel) and NAD(P)H (UV Blue-A channel) with multicolor flow cytometry (BD LSRFORTESSA). Flowjo histogram normalization was used to overlay untreated versus treated samples.

[11] = tested on: intracellular peroxidases in HMCLs; test: Intra-cellular peroxidase activity by Amplex Red in HMCLs; type: cell-based, human; details: for intracellular H2O2 decomposition mediated by peroxidases: different myeloma cell lines, thalidomide 20 μM, lenalidomide 20 μM, pomalidomide 10 μM, 40 to 60 minutes
Procedure: (§4) After 30 minutes, plates were read for fluorescence at 530 nm excitation and 590 nm emission with plate reader (Biotek Cytation3). For determining intra-cellular peroxidase activity by Amplex Red, cells were washed and mixed with Amplex Red reagent (50 μM) in HBSS buffer and plated 100,000 cells per well into 96 well plate, four wells for each condition. […] The DMSO control included H2O2 (100 μM). […] After specific time periods, the plates were read for fluorescence intensity using plate reader.

Horseradish peroxidase = molecular target: T1, Horseradish peroxidase (Armoracia rusticana, UniProt P00433); test: HRP/Amplex Red in-vitro assay; type: biochemical; details: 10 μM drug, 5 μM H2O2, 30 minutes
T1 sequence (P00433 31-338 limits assumed): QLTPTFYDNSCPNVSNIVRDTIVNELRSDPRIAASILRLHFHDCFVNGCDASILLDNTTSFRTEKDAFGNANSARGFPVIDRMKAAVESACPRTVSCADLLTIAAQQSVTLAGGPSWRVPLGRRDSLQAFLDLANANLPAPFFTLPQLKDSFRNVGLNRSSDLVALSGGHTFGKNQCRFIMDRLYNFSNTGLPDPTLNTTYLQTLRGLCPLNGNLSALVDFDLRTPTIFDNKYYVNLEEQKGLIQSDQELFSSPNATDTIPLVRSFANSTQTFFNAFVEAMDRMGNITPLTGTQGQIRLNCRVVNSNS
Procedure: as §4

[12] = OCIMY5-Vector (CRBN deficient) cells
[13] = OCIMY-CRBN (CRBN positive) cells

For `O=C([O-])CC([S-])C(=O)[O-].[Au+].[Na+].[Na+]` (centres unmarked) [ATM, sodium aurothiomalate], the “cell proliferation (MTT)” value [1, 12] was “did not inhibit cell proliferation” and the “cell proliferation (MTT)” value [1, 13] was “did not inhibit cell proliferation”.

For `O=C1O[C@H]([C@@H](O)CO)C(=O)C1=O` [DHA, Dehydroascorbic acid], the “myeloma cell proliferation (MTT)” value (myeloma cells [2]) was “inhibited myeloma cell proliferation”.

In the case of `OO` [H2O2, hydrogen peroxide], the “sensitivity of cell line (MTT)” value (RPMI-8226 cells) is reported as “resistant”, the “IKZF1 and IKZF3 degradation” value (IKZF1 and IKZF3 [3]) is reported as “in a CRBN-dependent fashion” and the “IKZF1 and IKZF3 degradation” value (IKZF1 and IKZF3 [4]) is reported as “enhanced IKZF1 and IKZF3 degradation”. For the same molecule, the “IKZF1 and IKZF3 degradation” value (IKZF1 and IKZF3 [5]) was “degraded IKZF1 and IKZF3 most effectively”, the IKZF1 degradation (IKZF1 and IKZF3 [5]; MM.1S, 3 hours of treatment) was “prominent” and the “time of peak IKZF1 dimerization after treatment” value (IKZF1 and IKZF3 [5]; MM.1S, exogenous H2O2 50 μM) was 60 min. The IKZF1 dimerization (IKZF1 and IKZF3 [5]; MM.1S, nonreducing conditions, lenalidomide 10 μM or exogenous H2O2 50 μM) was “induced IKZF1 dimerization”, the “formation of IgL-λ dimers” value (IgL-λ dimers) was “increased formation of IgL-λ dimers” and the “sensitivity of cell line (MTT)” value (MM.1S cells) was “hypersensitive”.

With `NC(=O)C1=CN([C@@H]2O[C@H](COP(=O)(O)OP(=O)(O)OC[C@H]3O[C@@H](n4cnc5c(N)ncnc54)[C@H](O)[C@@H]3O)[C@@H](O)[C@H]2O)C=CC1` [NADH] the cell survival [6] was “induced cell death”.

With `NC(=O)C1=CN([C@@H]2O[C@H](COP(=O)(O)OP(=O)(O)OC[C@H]3O[C@@H](n4cnc5c(N)ncnc54)[C@H](OP(=O)(O)O)[C@@H]3O)[C@@H](O)[C@H]2O)C=CC1` [NADPH] the cell survival [6] was “induced cell death”.

For `NC(=O)c1ccc[n+]([C@@H]2O[C@H](COP(=O)([O-])OP(=O)(O)OC[C@H]3O[C@@H](n4cnc5c(N)ncnc54)[C@H](OP(=O)(O)O)[C@@H]3O)[C@@H](O)[C@H]2O)c1` [NADP], the cell survival [6] was “induced cell death”.

With `NC(=O)c1ccc[n+]([C@@H]2O[C@H](COP(=O)([O-])OP(=O)(O)OC[C@H]3O[C@@H](n4cnc5c(N)ncnc54)[C@H](O)[C@@H]3O)[C@@H](O)[C@H]2O)c1` [NAD] the cell survival [6] was “induced cell death”.

With `CCC(C)SSc1ncc[nH]1` (centres unmarked) [PX12, 1-methylpropyl 2-imidazolyl disulfide] the “IKZF1 and IKZF3 degradation” value (IKZF1 and IKZF3 [5]) was “induced IKZF1 and IKZF3 degradation”, the “cell proliferation (MTT)” value [1, 12] was “inhibited cell proliferation” and the “cell proliferation (MTT)” value [1, 13] was “inhibited cell proliferation”. For the same molecule, the “IKZF1 and IKZF3 degradation” value (IKZF1 and IKZF3 [7]) was “induced IKZF1 and IKZF3 degradation”.

With `CC(=O)OC[C@H]1O[C@@H]([S-])[C@H](OC(C)=O)[C@@H](OC(C)=O)[C@@H]1OC(C)=O.CCP(CC)CC.[Au+]` [auranofin] the “CRBN dependence of inhibition of cancer cell proliferation” value (myeloma cells [8]) was “irrespective of CRBN level”, the “potency in inhibiting cancer cell proliferation, compared with lenalidomide” value (myeloma cells [8]) was “more potent than lenalidomide” and the “cancer cell viability (MTT)” value (myeloma cells [8]; myeloma cells) was “reducing cancer cell viability”. The “intracellular H2O2 accumulation” value (myeloma cells [9]) was “effective at accumulating intracellular H2O2” and the “potency in inhibiting thioredoxin reductase, compared with lenalidomide” value (thioredoxin reductase) was “more potent than lenalidomide”.

`CC(C)C[C@H](NC(=O)[C@H](Cc1ccccc1)NC(=O)c1cnccn1)B(O)O` [bortezomib] was tested, and the “bortezomib-induced PARP cleavage after lenalidomide pretreatment” value (PARP) was “enhanced”, the “interaction with auranofin (percent viability)” value [10] was “synergy” and the “bortezomib-induced apoptosis in cells pretreated with lenalidomide vs not pretreated” value (OPM2 cells) was “increased sensitivity”.

With `O=C(O)CCCC[C@@H]1CCSS1` [lipoic acid] the “anti-oxidative capacity (FADH2 and NAD(P)H oxidation)” value (RPMI-8226 myeloma cells) was “decreased myeloma cells anti-oxidative capacity”.

`NC(=O)CCCCC1CCSS1` (centres unmarked) [lopoamide] was tested, and the “anti-oxidative capacity (FADH2 and NAD(P)H oxidation)” value (RPMI-8226 myeloma cells) was “decreased myeloma cells anti-oxidative capacity”.

`Nc1cccc2c1C(=O)N(C1CCC(=O)NC1=O)C2=O` (centres unmarked) [pomalidomide] was tested, and the “inhibition of intracellular peroxidases compared among IMIDs” value ([11]; FIG. 1C-E and FIG. 2A) was “more potentially than thalidomide and lenalidomide”, the “intracellular H2O2 decomposition mediated by peroxidases” value [11] was “inhibit intracellular H2O2 decomposition” and the “decomposition of H2O2 by horseradish peroxidase (Amplex Red to resorufin)” value (Horseradish peroxidase) was “inhibited”.

`O=C1CCC(N2C(=O)c3ccccc3C2=O)C(=O)N1` (centres unmarked) [thalidomide] was tested, and the “intracellular H2O2 decomposition mediated by peroxidases” value [11] was “inhibit intracellular H2O2 decomposition” and the “decomposition of H2O2 by horseradish peroxidase (Amplex Red to resorufin)” value (Horseradish peroxidase) was “inhibited”.
